Like-named read-outs stand apart in the source and are kept apart here. Bridge positions count the residues as written; N and C are the ends. Square brackets hold non-standard residues; d marks the D form. Ends that are not written are not given here. Peptide text beside a SMILES is read from it. * marks the point of attachment. X1 = CC[C@H](C)CCCCC(=O)*; Dab = NCC[C@H](N)C(=O)O
Experiments:
E. coli strains = settings: cited from earlier work
Source text: This highly cationic fragment is important for both high affinity binding of Bac7 to the ribosome and its penetration inside bacterial cells. The effect of N-terminal shortening of rumicidin-1 was not so marked: activities of the analogs 4-29 and 6-29 decreased only two-fold, while the MIC values of the analogs 9-29 and 11-29 against E. coli were ≥4- ...

E. coli 1057 = assay: Serial passage resistance induction; type: cell-based, Escherichia coli; settings: serial passages, both media (MHB ±0.9%NaCl)
Description: Resistance induction experiments were performed using the previously described method. This approach allows for monitoring MIC values after each transfer. […] After incubation for 20 ± 2 h at 37 °C and 950 rpm, MICs were determined as described above. For each subsequent daily transfer, 2–4 μL of the inoculum taken from the first well containing a sub-inhibitory drug concentration was diluted with 2 mL of the fresh 2× MHB supplemented with 1.8% NaCl (or without salt). […] Multiple repeated passages in the presence of antimicrobial agents were performed for each bacterial strain during the experiment. Bacteria that grew at the highest concentrations of AMPs on the final day were passaged further 3 times on drug-free agar plates before determining the final MIC value.

[1] = system: E. coli 1057 R2 (rpoS^Q3stop, macB^N470D); settings: MHB + 0.9% NaCl
Description: Minimum inhibitory concentrations (MIC) were determined by broth microdilution assay based on Clinical and Laboratory Standards Institute (CLSI) guidelines using BSA in the growth medium to minimize AMP nonspecific adsorption. Bacterial test cultures were grown in the Mueller-Hinton broth (MHB, Sigma) at 37 °C to mid-log phase and then diluted with the 2× MH medium supplemented with 1.8% NaCl (or without salt) so that to reach a final cell concentration of 10^6 CFU/mL. 50 µL of the obtained bacterial suspension were added to aliquots of 50 µL of the peptide solutions serially diluted with sterilized 0.1% bovine serum albumin (BSA) in 96-well flat-bottom polystyrene microplates (Eppendorf #0030730011). […] To verify MIC values, the respiratory activity of the bacteria was determined. Briefly, 5 µL of 0.5 mg/mL resazurin (Sigma) was added to the wells after 24 h (or after 48 h for M. smegmatis) of incubation, and the plate was incubated for additional 3 h. In some cases, MICs were determined in the Lysogeny Broth (LB) or Middlebrook 7H9 medium. The reduction of resazurin to resorufin was recorded. […] The results were expressed as the median values determined based on at least three independent experiments performed in triplicate.
Resistance induction experiments were performed using the previously described method. This approach allows for monitoring MIC values after each transfer. Briefly, on the first day, the overnight culture of the wild-type bacteria was diluted with the 2× MHB supplemented with 1.8% NaCl (or without salt) to reach a final cell concentration of 10^6 CFU/mL. 50 µL of the obtained bacterial suspension were added to aliquots of 50 µL of the peptide solutions serially diluted with the sterilized 0.1% BSA in 96-well flat-bottom polystyrene microplates. After incubation for 20 ± 2 h at 37 °C and 950 rpm, MICs were determined as described above. For each subsequent daily transfer, 2–4 μL of the inoculum taken from the first well containing a sub-inhibitory drug concentration was diluted with 2 mL of the fresh 2× MHB supplemented with 1.8% NaCl (or without salt). […] Multiple repeated passages in the presence of antimicrobial agents were performed for each bacterial strain during the experiment. Bacteria that grew at the highest concentrations of AMPs on the final day were passaged further 3 times on drug-free agar plates before determining the final MIC value.

E. coli 1057 WT = assay: microbe, parasite or virus in culture; type: cell-based, Escherichia coli; settings: MHB + 0.9% NaCl
Description: Minimum inhibitory concentrations (MIC) were determined by broth microdilution assay based on Clinical and Laboratory Standards Institute (CLSI) guidelines using BSA in the growth medium to minimize AMP nonspecific adsorption[49]. Bacterial test cultures were grown in the Mueller-Hinton broth (MHB, Sigma) at 37 °C to mid-log phase and then diluted with the 2× MH medium supplemented with 1.8% NaCl (or without salt) so that to reach a final cell concentration of 10^6 CFU/mL. 50 µL of the obtained bacterial suspension were added to aliquots of 50 µL of the peptide solutions serially diluted with sterilized 0.1% bovine serum albumin (BSA) in 96-well flat-bottom polystyrene microplates (Eppendorf #0030730011). […] To verify MIC values, the respiratory activity of the bacteria was determined. Briefly, 5 µL of 0.5 mg/mL resazurin (Sigma) was added to the wells after 24 h (or after 48 h for M. smegmatis) of incubation, and the plate was incubated for additional 3 h. In some cases, MICs were determined in the Lysogeny Broth (LB) or Middlebrook 7H9 medium. The reduction of resazurin to resorufin was recorded. […] The results were expressed as the median values determined based on at least three independent experiments performed in triplicate.

70S initiation complexes = assay: Peptide bond formation (fMet-[14C]Val dipeptide); type: biochemical; settings: 30 µM amicoumacin A; 2 min 37 °C; three replicates; intact complexes 77 ± 5%
Description: Initiation complexes and ternary complexes were prepared as described previously[21],[59]. Where necessary initiation complexes were supplemented with rumicidin-1 (1 μM) or amicoumacin A (30 μM) followed by additional incubation for 5 min at 37 °C. To analyze formation of dipeptide fMet-Val, 0.2 μM 70S initiation complexes containing fMet-tRNA^fMet in the P site were mixed with 0.375 μM ternary complexes EF-Tu⋅GTP⋅[^14C]Val-tRNA^Val (444 dpm/pmol) and incubated for 2 min at 37 °C. Then samples were quenched with 1/10 volume of 5 M KOH and hydrolyzed for 30 min at 37 °C. Samples were neutralized with 1/10 volume of glacial acetic acid and analyzed by reversed-phase HPLC on RP8 (Merck) with an acetonitrile gradient in 0.1% trifluoroacetic acid. Percentage of synthesized dipeptide was determined by incorporation of the radioactive label as a ratio of peptide formed to the amount of the 70S ribosomes in the reaction mixture, as described earlier. Experiments were done in three replicates.

[2] = system: E. coli BW25113 ΔtolC pDualrep2; assay: pDualrep2 double-reporter assay; type: cell-based, Escherichia coli; settings: agar plate, overnight 37 °C
Description: For in vivo bioactivity test, the reporter strain BW25113 ΔtolC-pDualrep2 was used as previously described. Briefly, 10 µL of solutions of tested peptides (0.2 mM of full-length rumicidin isoforms; 0.5 mM of Rum-1[1-22] and Rum-1[9-29]) were applied to an agar plate contained a lawn of the reporter strain. 5 mg/ml erythromycin (Ery, 1 µL) and 25 µg/ml levofloxacin (Lev, 1 µL) solutions were used as control samples. After being incubated overnight at 37 °C, the plate was scanned by ChemiDoc (Bio-Rad) using “Cy3-blot” settings for RFP and “Cy5-blot” for the Katushka2S protein. At least, two independent experiments were performed, and the observed effects were the same.

E. coli BW25113 ΔsbmA = type: cell-based, Escherichia coli
Description: (§1) The reduction of resazurin to resorufin was recorded.

S. aureus ATCC 29213 = type: cell-based, Staphylococcus aureus; settings: ATCC 29213, 24 h
Description: as §1

[3] = system: Mycobacterium smegmatis mc(2)155; type: cell-based; settings: Mycobacterium mc(2)155, 24 h
Description: as §1

E. cloacae XDR CI 4172 = type: cell-based, Enterobacter cloacae; settings: XDR CI 4172, 24 h
Description: as §1

[4] = system: HEK293T (transformed embryonic kidney cells); assay: MTT cytotoxicity; type: cell-based, human; settings: mean
Description: (§2) Hemolytic activity of the peptides was tested against the fresh suspension of human red blood cells (hRBC) using the hemoglobin release assay as described previously. Two experiments were performed with the hRBC from blood samples collected from healthy donors by certified medical personnel upon informed written consent. All procedures were approved by the Ethics Committee of the Institute of Experimental Medicine (protocol 1/20 of 2/27/2020) and comply with the ethical principles of the Declaration of Helsinki. The quantitative data were represented as average means with standard deviations. The colorimetric 3-(4,5-dimethylthiazol-2-yl)-2,5-diphenyltetrazolium bromide (MTT) dye reduction assay was used to determine cytotoxicity of the peptides against human keratinocyte cell line (HaCaT) and transformed human embryonic kidney cells (HEK293T). Both cell lines were purchased from American Type Culture Collection (ATCC). 10^4 cells per well in Dulbecco’s modified Eagle’s medium (DMEM/F12) supplemented with 10% fetal bovine serum (FBS, Invitrogen) were placed into 96-well plates and then cultured in the CO2-incubator (5% CO2, 37 °C). After the media were removed, the peptides were dissolved in 100 µL of the same medium and added to cell cultures at different final concentrations. 20 h later, 20 μL of MTT (5 mg/mL, Sigma) was added to each well, and the plates were incubated for 4 h at 37 °C. Then, the media were discarded and 100 µL DMSO-isopropanol mixture at a ratio of 1:1 (v/v) was added to each well to dissolve the crystallized formazan. The absorbance at 570 nm was measured by a microplate reader AF2200 (Eppendorf). An optical density in the wells containing cells cultured without the peptides was assumed to represent 100% cell viability. Two independent experiments were performed for each peptide.

HaCaT (keratinocytes) = assay: MTT cytotoxicity; type: cell-based, human
Description: as §2

E. coli BW25113 = assay: MIC broth microdilution; type: cell-based, Escherichia coli; settings: 24 h 37 °C, median of ≥3 experiments; for Minimum inhibitory concentration MHB: Mueller-Hinton broth without salt
Description: as §1

[5] = system: human red blood cells (hRBC); assay: Hemolysis (hemoglobin release assay); type: cell-based; settings: mean
Description: as §2

E. coli = type: cell-based, Escherichia coli
Source text: of bacterial cells washed with sodium phosphate buffer, whereas the addition of 0.9% NaCl and/or divalent cations minimized or even abolished the activity (Supplementary Fig. 14). The same was true for Bac7[1-22] in most cases (Supplementary Fig. 14), except for the maximum […]
“NaPB + 0.9% NaCl”), at which significant outer membrane damage was observed. Thus, in the context of the host immune system operating in a complex environment containing NaCl and divalent cations, the most likely scenario is that rumicidin's ability to disrupt the integrity of the outer membrane is suppressed. Antibacterial activity of rumicidin-1 is inhibited in the presence […]
mixture, respectively), and the electrical double layer around the cell seems to be a key barrier on the way into the cell of highly charged and relatively hydrophilic PrAMP. Perhaps, translocation of rumicidin-1 into the periplasmic space depends on electrostatic interaction with the outer membrane followed by porin-mediated uptake (the gene knockout of ompF resulted in a 4-fold increase in MIC, Fig. 5a). […]
Fig. 4), (iv) experiments on inhibition of peptide bond formation Supplementary Fig. 5, and (v) structural studies of the rumicidin complex with the ribosome by Cryo-EM (Fig.4).
Point 2. Authors claim that the effect of these peptides on membrane integrity may be due to the presence of aromatic Trp and Phe residues in their structure. However, effect of the rumicidin-1 variant W23A,F24A is not shown.
To fill this gap, we performed a comparative analysis of the ability of rumicidin-1 and its analogue [W23A,F24A] to increase the permeability of E. coli membranes under different environmental conditions. In all cases in the […]

## Bac7[5-23]: Bac7 fragment lacking four N-terminal residues (RRIR) (PRPPRLPRPRPRPLPFPRP; Bactenecin-7; UniProt P19661 135-153, looked up, fragment)
E. coli strains
  fold increase in MIC on deletion of four N-terminal residues (RRIR): ≥ 16 fold

## Bac7[5-35]: Bac7 fragment lacking four N-terminal residues (RRIR) (PRPPRLPRPRPRPLPFPRPGPRPIPRPLPFP; Bactenecin-7; UniProt P19661 135-165, looked up, fragment)
E. coli strains
  fold increase in MIC on deletion of four N-terminal residues (RRIR): ≥ 16 fold

## CC[C@H](C)CCCCC(=O)N[C@@H](CCN)C(=O)N[C@H](C(=O)N[C@@H](CCN)C(=O)N[C@H]1CCNC(=O)[C@H]([C@@H](C)O)NC(=O)[C@H](CCN)NC(=O)[C@H](CCN)NC(=O)[C@H](CC(C)C)NC(=O)[C@@H](Cc2ccccc2)NC(=O)[C@H](CCN)NC1=O)[C@@H](C)O [Polymyxin B] (X1-[Dab]T[Dab][Dab][Dab][dF]L[Dab][Dab]T; lactam 4-C (inferred); N-terminus assumed)
E. coli 1057
  fold increase in MIC values under selection: 128 fold
[1]
  MIC: 4 µM
E. coli 1057 WT
  MIC: 0.062 µM

## CC(C)C[C@H](NC(=O)[C@@H](O)[C@@H](O)[C@@H](N)CC(N)=O)[C@@H]1Cc2cccc(O)c2C(=O)O1 [amicoumacin A]
70S initiation complexes
  fMet-[14C]Val dipeptide formed: 72 ± 7%

## CC[C@H]1OC(=O)[C@H](C)[C@@H](O[C@H]2C[C@@](C)(OC)[C@@H](O)[C@H](C)O2)[C@H](C)[C@@H](O[C@@H]2O[C@H](C)C[C@H](N(C)C)[C@H]2O)[C@](C)(O)C[C@@H](C)C(=O)[C@H](C)[C@@H](O)[C@]1(C)O [Erythromycin]
E. coli 1057 WT; Escherichia coli, 1057WT, 24 h
  MIC: 1020 µM
[2]
  reporter induction: strongly induced biosynthesis of Katushka2S, but not of RFP

## RARRPRPPKPRPPHRPRPRPRPWFPPRFP [Rumicidin-1]
E. coli BW25113 ΔsbmA; MHB + 0.9% NaCl
  MIC: ≥ 64 µM
E. coli BW25113 ΔsbmA; salt-free MHB
  MIC: 1 µM
S. aureus ATCC 29213
  MIC S. aureus ATCC 29213: > 32 µM
[3]
  MICs depending on the test medium: 0.125 to 0.5 µM
E. cloacae XDR CI 4172
  MIC E. cloacae XDR CI 4172: 2 µM
[4]; 1 µM
  HEK293T cell viability: 105.704%
[4]; 2 µM
  HEK293T cell viability: 104.142%
[4]; 4 µM
  HEK293T cell viability: 106.626%
[4]; 8 µM
  HEK293T cell viability: 103.664%
[4]; 16 µM
  HEK293T cell viability: 105.32%
[4]; 32 µM
  HEK293T cell viability: 89.704%
[4]; 64 µM
  HEK293T cell viability: 72.479%
HaCaT (keratinocytes); 1 µM
  HaCaT cell viability: 104.258%
HaCaT (keratinocytes); 2 µM
  HaCaT cell viability: 105.615%
HaCaT (keratinocytes); 4 µM
  HaCaT cell viability: 107.778%
HaCaT (keratinocytes); 8 µM
  HaCaT cell viability: 104.973%
HaCaT (keratinocytes); 16 µM
  HaCaT cell viability: 107.318%
HaCaT (keratinocytes); 32 µM
  HaCaT cell viability: 107.645%
HaCaT (keratinocytes); 64 µM
  HaCaT cell viability: 99.839%
E. coli BW25113; Mueller-Hinton broth + 0.9% NaCl, listed as WT
  Minimum inhibitory concentration MHB + 0.9% NaCl: 4 to 8 µM
E. coli BW25113
  Minimum inhibitory concentration MHB: 1 µM
E. coli BW25113; listed as WT
  Minimum inhibitory concentration MHB: 2 µM
[5]; 0.25 µM
  Hemolysis: 0.134%
[5]; 0.5 µM
  Hemolysis: 0.357%
[5]; 1 µM
  Hemolysis: 0.408%
[5]; 2 µM
  Hemolysis: 0.624%
[5]; 4 µM
  Hemolysis: 0.667%
[5]; 8 µM
  Hemolysis: 0.801%
[5]; 16 µM
  Hemolysis: 0.83%
[5]; 32 µM
  Hemolysis: 0.911%
[5]; 64 µM
  Hemolysis: 0.932%
E. coli; MH medium with NaCl
  MIC: 4 µM
E. coli; MH medium with NaCl and divalent cations (mixture)
  MIC: 16 to 32 µM
E. coli; MH medium with divalent cations
  MIC: 8 µM
E. coli; salt-free MH medium
  MIC: 1 µM

— publication PMC11484942, “Rumicidins are a family of mammalian host-defense peptides plugging the 70S ribosome exit tunnel” (Nature Communications, 2024)
